These cell lines were tested with Cc1cc([C@@H](C)Nc2ccccc2C(=O)O)c2nc(N3CCOCC3)cc(=O)n2c1 [AZD6482] + COc1cccc2cc(-c3nc([C@H]4CC[C@H](C(=O)O)CC4)n4ncnc(N)c34)[nH]c12 [OSI-027] (partner 0.5 µM) (assay: relative viability (nuclei count vs DMSO), 5 days (fraction); higher = more cells survive). Conditions: first compound 0.08 µM.
Outline: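 Relative viability is defined as nuclei in treated wells over nuclei in vehicle wells. Duplicate plates were run and medians reported. Lung cancer cell lines in 1536-well plates were dosed by pin tool one day after seeding, with one drug or with a fixed anchor-drug dose plus five library-drug doses (not always all listed) in √10 steps, and nuclei were counted after 5 days.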
For NCI-H1792, the relative viability was 0.662.
In the case of NCI-H1355, the relative viability is reported as 0.287.
NCI-H3122 was tested, and the relative viability was 1.01.
NCI-H1437 showed a relative viability of 0.983.
In the case of NCI-H1755, the relative viability is reported as 0.605.
With NCI-H2023 the relative viability was 0.398.
HCC-15 gave a relative viability of 0.672.
PC-14 gave a relative viability of 0.723.
EKVX showed a relative viability of 0.624.
In the case of LC-2-ad, the relative viability is reported as 0.734.
NCI-H1563 was tested, and the relative viability was 0.771.
Work on NCI-H1944 yielded a relative viability of 0.389.
In the case of NCI-H1975, the relative viability is reported as 0.631.
With RERF-LC-KJ the relative viability was 0.547.
In the case of ABC-1, the relative viability is reported as 0.51.
NCI-H358 was tested, and the relative viability was 0.711.
Work on NCI-H650 yielded a relative viability of 0.588.
Cell Line PC-3 [JPC-3] has a relative viability of 0.654.

Same assay, conditions: first compound 0.253 µM
NCI-H2009 gave a relative viability of 0.601.
With A-427 the relative viability was 0.348.
In the case of NCI-H661, the relative viability is reported as 0.722.
NCI-H1734 gave a relative viability of 0.509.
With NCI-H460 the relative viability was 0.589.
NCI-H2347 gave a relative viability of 0.268.
With SK-LU-1 the relative viability was 0.319.
201T was tested, and the relative viability was 0.663.
NCI-H1915 was tested, and the relative viability was 0.57.
Cell Line HCC-827 has a relative viability of 0.658.
With LXF-289 the relative viability was 0.643.
NCI-H23 gave a relative viability of 0.512.
With NCI-H647 the relative viability was 0.513.
CAL-12T gave a relative viability of 0.715.
NCI-H1651 showed a relative viability of 0.59.
EPLC-272H showed a relative viability of 0.235.
NCI-H2228 showed a relative viability of 0.316.
Work on NCI-H1792 yielded a relative viability of 0.677.
In the case of NCI-H1355, the relative viability is reported as 0.323.
NCI-H3122 gave a relative viability of 1.01.
Cell Line NCI-H1437 has a relative viability of 0.855.
For NCI-H1755, the relative viability was 0.595.
In the case of NCI-H2023, the relative viability is reported as 0.336.
HCC-15 was tested, and the relative viability was 0.61.
Cell Line PC-14 has a relative viability of 1.04.
EKVX showed a relative viability of 0.62.
For LC-2-ad, the relative viability was 0.757.
With NCI-H1563 the relative viability was 0.749.
NCI-H1944 gave a relative viability of 0.417.
With NCI-H1975 the relative viability was 0.616.
RERF-LC-KJ was tested, and the relative viability was 0.496.
ABC-1 showed a relative viability of 0.478.
NCI-H358 gave a relative viability of 0.557.
With PC-3 [JPC-3] the relative viability was 0.732.

Same assay, conditions: first compound 0.8 µM
NCI-H2009 showed a relative viability of 0.555.
Cell Line A-427 has a relative viability of 0.52.
With NCI-H661 the relative viability was 0.649.
In the case of NCI-H1734, the relative viability is reported as 0.542.
NCI-H460 gave a relative viability of 0.543.
For NCI-H2347, the relative viability was 0.317.
SK-LU-1 was tested, and the relative viability was 0.347.
Cell Line 201T has a relative viability of 0.631.
In the case of NCI-H1915, the relative viability is reported as 0.689.
HCC-827 was tested, and the relative viability was 0.8.
With LXF-289 the relative viability was 0.772.
For NCI-H23, the relative viability was 0.592.
With NCI-H647 the relative viability was 0.612.
Work on CAL-12T yielded a relative viability of 0.519.
Work on NCI-H1651 yielded a relative viability of 0.655.
EPLC-272H gave a relative viability of 0.345.
With NCI-H2228 the relative viability was 0.548.
With NCI-H1792 the relative viability was 0.73.
NCI-H1355 was tested, and the relative viability was 0.384.
Cell Line NCI-H3122 has a relative viability of 0.89.
NCI-H1437 was tested, and the relative viability was 1.07.
With NCI-H1755 the relative viability was 0.662.
NCI-H2023 gave a relative viability of 0.341.
HCC-15 gave a relative viability of 0.666.
With PC-14 the relative viability was 0.841.
EKVX was tested, and the relative viability was 0.684.
For LC-2-ad, the relative viability was 0.807.
For NCI-H1563, the relative viability was 0.738.
With NCI-H1944 the relative viability was 0.428.
NCI-H1975 showed a relative viability of 0.779.
In the case of RERF-LC-KJ, the relative viability is reported as 0.458.
ABC-1 showed a relative viability of 0.358.
For NCI-H358, the relative viability was 0.662.
With NCI-H650 the relative viability was 0.457.
With PC-3 [JPC-3] the relative viability was 0.723.

Same assay, conditions: first compound 2.53 µM
In the case of NCI-H2009, the relative viability is reported as 0.224.
Cell Line NCI-H661 has a relative viability of 0.4.
For NCI-H1734, the relative viability was 0.362.
For NCI-H460, the relative viability was 0.326.
NCI-H2347 showed a relative viability of 0.194.
SK-LU-1 gave a relative viability of 0.246.
201T showed a relative viability of 0.462.
NCI-H1915 was tested, and the relative viability was 0.505.
For HCC-827, the relative viability was 0.451.
Cell Line LXF-289 has a relative viability of 0.559.
With NCI-H23 the relative viability was 0.364.
With NCI-H647 the relative viability was 0.335.
CAL-12T showed a relative viability of 0.348.
With NCI-H1651 the relative viability was 0.567.
EPLC-272H showed a relative viability of 0.214.
NCI-H2228 gave a relative viability of 0.358.
With NCI-H1792 the relative viability was 0.511.
NCI-H1355 gave a relative viability of 0.256.
NCI-H1437 was tested, and the relative viability was 0.471.
NCI-H1755 was tested, and the relative viability was 0.486.
In the case of NCI-H2023, the relative viability is reported as 0.237.
Work on HCC-15 yielded a relative viability of 0.385.
PC-14 gave a relative viability of 0.658.
In the case of EKVX, the relative viability is reported as 0.387.
LC-2-ad showed a relative viability of 0.581.
In the case of NCI-H1563, the relative viability is reported as 0.7.
With NCI-H1944 the relative viability was 0.249.
NCI-H1975 showed a relative viability of 0.495.
Work on RERF-LC-KJ yielded a relative viability of 0.497.
ABC-1 gave a relative viability of 0.401.
NCI-H358 was tested, and the relative viability was 0.257.
With NCI-H650 the relative viability was 0.305.
PC-3 [JPC-3] was tested, and the relative viability was 0.502.

Same assay, conditions: first compound 8 µM
NCI-H2009 gave a relative viability of 0.388.
Cell Line A-427 has a relative viability of 0.423.
NCI-H661 showed a relative viability of 0.435.
With NCI-H1734 the relative viability was 0.387.
NCI-H460 showed a relative viability of 0.292.
Cell Line NCI-H2347 has a relative viability of 0.223.
With SK-LU-1 the relative viability was 0.214.
201T gave a relative viability of 0.601.
NCI-H1915 gave a relative viability of 0.595.
Cell Line HCC-827 has a relative viability of 0.48.
Work on LXF-289 yielded a relative viability of 0.615.
With NCI-H23 the relative viability was 0.302.
Work on NCI-H647 yielded a relative viability of 0.315.
CAL-12T was tested, and the relative viability was 0.342.
Work on NCI-H1651 yielded a relative viability of 0.539.
Work on EPLC-272H yielded a relative viability of 0.255.
For NCI-H2228, the relative viability was 0.445.
Cell Line NCI-H1792 has a relative viability of 0.406.
NCI-H1355 gave a relative viability of 0.298.
NCI-H3122 gave a relative viability of 0.465.
In the case of NCI-H1437, the relative viability is reported as 0.567.
Cell Line NCI-H1755 has a relative viability of 0.494.
In the case of NCI-H2023, the relative viability is reported as 0.245.
HCC-15 showed a relative viability of 0.485.
Work on PC-14 yielded a relative viability of 0.954.
Cell Line EKVX has a relative viability of 0.434.
LC-2-ad gave a relative viability of 0.565.
